Measured values from PMC6271077, “Synthesis, Anticancer and Antibacterial Activity of Salinomycin N-Benzyl Amides” (Molecules, 2014).
Values after ≈ are worked out from the molar mass of the structure shown.

test system: M. tuberculosis isoniazid-resistant strain (spec. 210); test: Tuberculostatic activity, test-tube dilution; assay type: cell-based; details: Mycobacterium tuberculosis, read-out: MIC M. tuberculosis Isoniazid-Resistant Strain

| SMILES | MIC [µg/mL] |
| --- | --- |
| CC[C@H](C(=O)NCc1cccc(Br)c1)C1CC[C@H](C)C([C@@H](C)[C@H](O)[C@H](C)C(=O)[C@H](CC)C2O[C@]3(C=C[C@@H](O)C4(CC[C@@](C)(C5CC[C@](O)(CC)[C@H](C)O5)O4)O3)[C@H](C)C[C@@H]2C)O1 (some centres unmarked) [Br-m] | > 100 |
| CC[C@H](C(=O)NCc1ccccc1Br)C1CC[C@H](C)C([C@@H](C)[C@H](O)[C@H](C)C(=O)[C@H](CC)C2O[C@]3(C=C[C@@H](O)C4(CC[C@@](C)(C5CC[C@](O)(CC)[C@H](C)O5)O4)O3)[C@H](C)C[C@@H]2C)O1 (some centres unmarked) [Br-o] | > 100 |
| CC[C@H](C(=O)NCc1ccc(Br)cc1)C1CC[C@H](C)C([C@@H](C)[C@H](O)[C@H](C)C(=O)[C@H](CC)C2O[C@]3(C=C[C@@H](O)C4(CC[C@@](C)(C5CC[C@](O)(CC)[C@H](C)O5)O4)O3)[C@H](C)C[C@@H]2C)O1 (some centres unmarked) [Br-p] | 100 (≈ 109 µM) |
| CC[C@H](C(=O)NCc1cccc(Cl)c1)C1CC[C@H](C)C([C@@H](C)[C@H](O)[C@H](C)C(=O)[C@H](CC)C2O[C@]3(C=C[C@@H](O)C4(CC[C@@](C)(C5CC[C@](O)(CC)[C@H](C)O5)O4)O3)[C@H](C)C[C@@H]2C)O1 (some centres unmarked) [Cl-m] | > 100 |
| CC[C@H](C(=O)NCc1ccccc1Cl)C1CC[C@H](C)C([C@@H](C)[C@H](O)[C@H](C)C(=O)[C@H](CC)C2O[C@]3(C=C[C@@H](O)C4(CC[C@@](C)(C5CC[C@](O)(CC)[C@H](C)O5)O4)O3)[C@H](C)C[C@@H]2C)O1 (some centres unmarked) [Cl-o] | > 100 |
| CC[C@H](C(=O)NCc1ccc(Cl)cc1)C1CC[C@H](C)C([C@@H](C)[C@H](O)[C@H](C)C(=O)[C@H](CC)C2O[C@]3(C=C[C@@H](O)C4(CC[C@@](C)(C5CC[C@](O)(CC)[C@H](C)O5)O4)O3)[C@H](C)C[C@@H]2C)O1 (some centres unmarked) [Cl-p, p-chlorobenzyl amide of salinomycin] | > 100 |
| CCC(C(=O)NCc1cccc(F)c1)C1CCC(C)C(C(C)C(O)C(C)C(=O)C(CC)C2OC3(C=CC(O)C4(CCC(C)(C5CCC(O)(CC)C(C)O5)O4)O3)C(C)CC2C)O1 (centres unmarked) [F-m] | > 100 |
| CCC(C(=O)NCc1ccccc1F)C1CCC(C)C(C(C)C(O)C(C)C(=O)C(CC)C2OC3(C=CC(O)C4(CCC(C)(C5CCC(O)(CC)C(C)O5)O4)O3)C(C)CC2C)O1 (centres unmarked) [F-o] | 100 (≈ 117 µM) |
| CC[C@H](C(=O)NCc1ccc(F)cc1)C1CC[C@H](C)C([C@@H](C)[C@H](O)[C@H](C)C(=O)[C@H](CC)C2O[C@]3(C=C[C@@H](O)C4(CC[C@@](C)(C5CC[C@](O)(CC)[C@H](C)O5)O4)O3)[C@H](C)C[C@@H]2C)O1 (some centres unmarked) [F-p] | 50 (≈ 58.3 µM) |
| NNC(=O)c1ccncc1 [Isoniazid, isoniazid, reference compound] | 6.25 (≈ 45.6 µM) |
| CC[C@H](C(=O)NCc1cccc([N+](=O)[O-])c1)C1CC[C@H](C)C([C@@H](C)[C@H](O)[C@H](C)C(=O)[C@H](CC)C2O[C@]3(C=C[C@@H](O)C4(CC[C@@](C)(C5CC[C@](O)(CC)[C@H](C)O5)O4)O3)[C@H](C)C[C@@H]2C)O1 (some centres unmarked) [NO2-m] | > 100 |
| CCC(C(=O)NCc1ccccc1[N+](=O)[O-])C1CCC(C)C(C(C)C(O)C(C)C(=O)C(CC)C2OC3(C=CC(O)C4(CCC(C)(C5CCC(O)(CC)C(C)O5)O4)O3)C(C)CC2C)O1 (centres unmarked) [NO2-o] | 100 (≈ 113 µM) |
| CC[C@H](C(=O)NCc1ccc([N+](=O)[O-])cc1)C1CC[C@H](C)C([C@@H](C)[C@H](O)[C@H](C)C(=O)[C@H](CC)C2O[C@]3(C=C[C@@H](O)C4(CC[C@@](C)(C5CC[C@](O)(CC)[C@H](C)O5)O4)O3)[C@H](C)C[C@@H]2C)O1 (some centres unmarked) [NO2-p] | 50 (≈ 56.5 µM) |
| CC[C@@H](C(=O)[C@@H](C)[C@@H](O)[C@H](C)[C@@H]1O[C@@H]([C@@H](CC)C(=O)O)CC[C@@H]1C)[C@H]1O[C@]2(C=C[C@@H](O)[C@]3(CC[C@@](C)([C@H]4CC[C@](O)(CC)[C@H](C)O4)O3)O2)[C@H](C)C[C@@H]1C [SAL, Salinomycin] | 50 (≈ 66.6 µM) |
